The values that follow come from patent US20070244111A1, “Pyrazolopyrimidines” (priority 2003, published 2007).

The nature of the series: log P determination by HPLC (EEC Directive 79/831 Annex V. A8). The note with it: HPLC gradient method. It is filed as physicochemical. The procedure:
The log P values were determined in accordance with EEC Directive 79/831 Annex V. A8 by HPLC (gradient method, acetonitrile/0.1% aqueous phosphoric acid).

[1] abbreviates: gradient of acetonitrile/0.1% aqueous phosphoric acid, acetonitrile/0.1% aqueous phosphoric acid (pH 2.3), read-out: HPLC: log P.

Read-outs that look alike come from different tables or passages of the source.

For the compound `C=Cc1cnn2c(N3CCC(C)CC3)c(-c3ccc(F)cc3Cl)c(Cl)nc12` [Example 1, 3-vinyl-5-chloro-6-(2-chloro-4-fluorophenyl)-7-(4-methylpiperidino)pyrazolo[1 ,5a]pyrimidine], the chromatographic logP under setting [1] stood at 6.07.

In the case of `O=Cc1cnn2c(N3CCOCC3)c(-c3ccc(F)cc3Cl)c(Cl)nc12` [Example 143], the chromatographic logP under setting [1] was 2.94.

Take `CC(Nc1c(-c2ccccc2Cl)c(Cl)nc2c(/C(Cl)=C/C=O)cnn12)C(C)(C)C` (centres unmarked) [Example 29]: for the setting “acetonitrile/0.1% aqueous phosphoric acid (pH 2.3), read-out: HPLC: log P”, the chromatographic logP came out at 5.98.

For the compound `C#Cc1cnn2c(N3CCC(C)CC3)c(-c3ccc(F)cc3Cl)c(Cl)nc12` [Example 9], the chromatographic logP under setting [1] turned out to be 5.31.

For `N#Cc1cnn2c(N3CCOCC3)c(-c3ccc(F)cc3Cl)c(Cl)nc12` [Example 141], under setting [1], the chromatographic logP stood at 3.33.

As for `N#Cc1cnn2c(Cl)c(-c3ccc(F)cc3Cl)c(Cl)nc12` [Example 145, 3-cyano-5,7-dichloro-6-(2-chloro-4-fluorophenyl)pyrazolo[1 ,5-a]pyrimidine], the chromatographic logP under setting [1] worked out at 3.48.

For `CC1CCN(c2c(-c3ccc(F)cc3Cl)c(Cl)nc3c(C=O)cnn23)CC1` [Example 142, 3-formyl-5-chloro-6-(2-chloro-4-fluorophenyl)-7-(4-methylpiperidino)pyrazolo[1,5-a]pyrimidine], the chromatographic logP (gradient of acetonitrile/0.1% aqueous phosphoric acid, pH 2.3, heading: HPLC: log P) turned out to be 4.53.

On to `CC(C)/C=C/c1cnn2c(N3CCC(C)CC3)c(-c3ccc(F)cc3Cl)c(Cl)nc12` [Example 10], for which the chromatographic logP under setting [1] was 7.21.
